Measured values: US8231858B2, “Diagnostic imaging agents with MMP inhibitory activity” (GE Healthcare Limited, priority 2003, dated 2012)

How the values were obtained:
MMP-2 = target: T1, MMP-2 (Homo sapiens, UniProt P08253); experiment: Assay for MMP-2 inhibitory activity (fluorogenic substrate); assay type: biochemical; conditions: MMP-2 1 nM, preincubation 37° C. for 30 min, pH 7.5
T1 sequence (P08253 110-660): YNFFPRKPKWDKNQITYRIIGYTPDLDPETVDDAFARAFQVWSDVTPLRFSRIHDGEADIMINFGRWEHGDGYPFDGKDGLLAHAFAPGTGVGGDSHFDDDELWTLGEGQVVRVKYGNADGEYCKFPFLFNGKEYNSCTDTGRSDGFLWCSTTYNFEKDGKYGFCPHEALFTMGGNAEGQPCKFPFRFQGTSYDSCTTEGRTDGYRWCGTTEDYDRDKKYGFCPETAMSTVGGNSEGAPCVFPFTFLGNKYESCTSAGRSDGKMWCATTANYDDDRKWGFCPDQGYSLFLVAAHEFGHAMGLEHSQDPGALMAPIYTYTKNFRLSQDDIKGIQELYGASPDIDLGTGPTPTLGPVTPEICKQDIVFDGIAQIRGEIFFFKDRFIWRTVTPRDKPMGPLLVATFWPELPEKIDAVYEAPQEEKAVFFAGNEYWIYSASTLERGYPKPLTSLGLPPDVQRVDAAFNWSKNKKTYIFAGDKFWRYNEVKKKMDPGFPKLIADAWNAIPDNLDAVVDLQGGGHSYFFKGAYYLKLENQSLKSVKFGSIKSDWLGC
Description: (§1) The synthetic broad-spectrum fluorogenic substrate (7-methoxycoumarin-4-yl) acetyl pro-Leu-Gly-Leu-(3-(2,4-dinitrophenyl)-L-2,3-diamino-propionyl)-Ala-Arg-NH2 (R & D Systems) was used to assay MMP-2 and MMP-9 activity as described previously [Huang et al J. Biol. Chem. 272 22086-22091 (1997)]. […] An aliquot (10 μl) of substrate (5 μM) was then added to […] of preincubated MMP/compound mixture, and activity was determined at 37° C. by following product release with time. The fluorescence changes were monitored using a Fusion Universal Microplate Analyzer (Packard Bioscience) with excitation and emission wavelengths set to 330 and 390 nm, respectively for MMP-2 and MMP-9. Inhibited rates were measured from the initial 10 min of the reaction profile where product release was linear with time. Nonlinear regression analysis was performed using the XMGRACE 5.18 software under linux.

MMP-9 = MMP-9 (Homo sapiens, UniProt P14780); experiment: Assay for MMP-9 inhibitory activity (fluorogenic substrate); assay type: biochemical; conditions: MMP-9 2 nM, preincubation 37° C. for 30 min, pH 7.5
Chain of MMP-9 (P14780 94-707, species assumed): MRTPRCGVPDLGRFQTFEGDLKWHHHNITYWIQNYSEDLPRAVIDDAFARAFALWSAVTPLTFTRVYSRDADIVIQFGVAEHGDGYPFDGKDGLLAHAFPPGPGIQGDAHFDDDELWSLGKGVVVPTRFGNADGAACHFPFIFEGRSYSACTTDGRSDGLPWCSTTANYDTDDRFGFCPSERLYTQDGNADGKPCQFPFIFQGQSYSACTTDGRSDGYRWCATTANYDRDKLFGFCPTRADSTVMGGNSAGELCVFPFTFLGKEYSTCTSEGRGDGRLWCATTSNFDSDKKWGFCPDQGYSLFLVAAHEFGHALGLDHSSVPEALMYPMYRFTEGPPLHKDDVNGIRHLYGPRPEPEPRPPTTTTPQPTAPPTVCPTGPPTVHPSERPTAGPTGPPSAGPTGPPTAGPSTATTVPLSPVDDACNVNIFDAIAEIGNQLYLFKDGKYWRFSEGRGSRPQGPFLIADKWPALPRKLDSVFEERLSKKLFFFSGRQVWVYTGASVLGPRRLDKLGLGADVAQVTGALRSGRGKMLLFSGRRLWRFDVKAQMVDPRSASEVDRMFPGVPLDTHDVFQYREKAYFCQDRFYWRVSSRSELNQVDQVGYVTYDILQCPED
Description: as §1

CC(C)[C@H](C(=O)NO)N(Cc1cccnc1)S(=O)(=O)c1ccc(O)c(I)c1 [Compound 8]
melting point: 201 to 203 °C | IC50 (MMP-2): 320 nM | IC50 (MMP-9): 153 nM

CC(C)C(C(=O)NO)N(Cc1cccnc1)S(=O)(=O)c1ccc(I)cc1 (centres unmarked) [Compound 9]
melting point: 169 °C | IC50 (MMP-2): 2.5 nM | IC50 (MMP-9): 4.6 nM

CC(C)[C@H](C(=O)NO)N(Cc1cccnc1)S(=O)(=O)c1ccc(O)cc1 [Compound 13]
IC50 (MMP-2): 57.5 nM | IC50 (MMP-9): 257 nM

CC(C)[C@H](C(=O)NO)N(Cc1cccnc1)S(=O)(=O)c1ccc(Br)cc1 [Compound 14]
melting point: 169 to 170 °C | IC50 (MMP-2): 16.2 nM | IC50 (MMP-9): 76 nM
